Measured values published in BindingDB's records for doi:10.1021/acschembio.6b00217 (Broad Institute, 2016).

Target: Serine/threonine-protein kinase SIK2 (Homo sapiens, UniProt Q9H0K1)
Assay: Caliper-based Mobility Shift Assay
Settings: pH 8
Protocol: IC50‘s for HG-9-91-01 derivatives were measured by Caliper-based mobility shift assay (PerkinElmer). […] Reactions were quenched by adding 20 mM EDTA (pH 8) after 1 hr, and percentage of substrate conversion was measured by LabChip EZ Reader II (PerkinElmer).

Sequence of Serine/threonine-protein kinase SIK2 (Q9H0K1 whole entry): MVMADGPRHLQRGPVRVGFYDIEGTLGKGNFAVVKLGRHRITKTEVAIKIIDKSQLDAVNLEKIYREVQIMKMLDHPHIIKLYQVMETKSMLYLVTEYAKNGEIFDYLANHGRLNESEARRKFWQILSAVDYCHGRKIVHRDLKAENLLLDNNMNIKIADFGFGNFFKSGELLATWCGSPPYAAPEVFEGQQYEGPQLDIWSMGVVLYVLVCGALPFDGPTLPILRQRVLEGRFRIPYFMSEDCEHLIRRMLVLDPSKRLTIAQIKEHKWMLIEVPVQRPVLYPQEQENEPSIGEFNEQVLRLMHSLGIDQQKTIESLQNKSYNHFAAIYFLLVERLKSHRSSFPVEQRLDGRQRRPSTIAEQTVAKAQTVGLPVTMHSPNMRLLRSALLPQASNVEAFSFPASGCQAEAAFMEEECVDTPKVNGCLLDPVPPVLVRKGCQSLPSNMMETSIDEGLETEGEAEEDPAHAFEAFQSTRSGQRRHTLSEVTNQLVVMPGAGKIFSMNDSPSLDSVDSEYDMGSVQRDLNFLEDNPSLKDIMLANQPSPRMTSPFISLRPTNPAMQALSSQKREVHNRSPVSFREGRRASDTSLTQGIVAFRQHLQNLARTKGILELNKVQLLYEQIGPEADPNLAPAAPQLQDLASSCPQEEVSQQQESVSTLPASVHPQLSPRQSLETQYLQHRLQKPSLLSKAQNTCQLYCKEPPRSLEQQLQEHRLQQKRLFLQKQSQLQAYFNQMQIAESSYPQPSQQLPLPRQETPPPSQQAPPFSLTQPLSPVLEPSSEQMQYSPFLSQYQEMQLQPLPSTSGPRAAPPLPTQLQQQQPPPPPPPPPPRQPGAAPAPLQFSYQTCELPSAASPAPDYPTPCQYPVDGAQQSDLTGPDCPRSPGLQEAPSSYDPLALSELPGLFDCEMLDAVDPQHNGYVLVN

Structure (SMILES) | IC50
CCOc1cc(C2CCN(C)CC2)ccc1Nc1ncc2c(n1)N(c1ccc(OC)cn1)C(=O)N(c1c(C)cccc1Cl)C2 [HG-9-91-01 derivative, 6] | 150 nM
COc1ccc(N2C(=O)N(c3c(C)cccc3C)Cc3cnc(Nc4ccc(C5CCN(C)CC5)cc4OC(C)C)nc32)nc1 [HG-9-91-01 derivative, 7] | > 7000 nM
COc1ccc(N2C(=O)N(c3c(C)cccc3Cl)Cc3cnc(Nc4ccc(N5CCN(C)CC5)cc4)nc32)nc1 [YKL-05-095 (3)] | 6 nM
COc1ccc(N2C(=O)N(c3c(C)cccc3Cl)Cc3cnc(Nc4ccc(N5CCN(C)CC5)cc4OC)nc32)nc1 [YKL-05-096 (4)] | 34 nM
